Square brackets hold non-standard residues; d marks the D form. Peptide text beside a SMILES is read from it. Orn = NCCC[C@H](N)C(=O)O; βAla = NCCC(=O)O
Tests used:
KSHV PAN RNA in BC-1 = assay: KSHV PAN RNA qRT-PCR (reactivation); assay type: cell-based; conditions: BC-1, 16 μM, 24 h
Protocol: (§1) Because VGN50 is derived from the KSHV transactivator sequence, we next examined if VGN50 can inhibit KSHV lytic replication by competitively blocking the coactivator binding to K-Rta. To study this, we used the TREx-K-Rta BCBL-1 cell line, in which we can trigger the expression of exogenous Flag-tagged K-Rta in a doxycycline (Dox) inducible manner. TREx-K-Rta BCBL-1 cells were treated with […] VGN50 or mutant peptide, with or without Dox induction. We used approximately one-half of the IC50 concentration of VGN50 to treat the TREx-K-Rta BCBL-1 cells in order to avoid cell toxicity effects that would non-specifically decrease viral gene expression. KSHV gene expression was profiled with a KSHV genome-wide PCR array, using ribosomal rRNA for normalization and as an internal control. Fold activation relative to the uninduced Mut-P-treated sample (not induced: Dox -) was determined and a heatmap for KSHV lytic gene expression was generated (Fig. 3a). […] Immunoblotting was used to confirm the induction of lytic replication by Dox based on exogenous K-Rta protein (Flag-K-Rta) and the expression of two other KSHV lytic proteins (ORF57 and K-bZIP) along with actin and KSHV LANA protein as controls for equal loading and similar viral copy numbers in samples, respectively (Fig. 3b).
(§2) Fig. 3 Effects of VGN50 on KSHV gene transcription and VGN50 binding with SWI/SNF components. a KSHV qRT-PCR array analysis was used to study effects of VGN50 on KSHV gene transcription in a genome-wide manner. Uninduced (−; no doxycycline added) or dox-induced (+; 1 μg/ml) cells were treated with VGN50 or the mutant peptide (Mut-P) at a concentration of 24 μM. Samples were collected at 24 h post-treatment. Expression in uninduced cells was set as 1 for each viral gene and expression shown as fold activation relative to no-Dox samples. Selected cellular genes were also included in the PCR array for comparison. 18S ribosomal RNA was used as an internal control. b KSHV protein expression. Immunoblotting was performed to confirm both endogenous and exogenous K-Rta expression before (not induced) and after induction by Dox treatment (Dox-induced). Latent KSHV protein LANA and actin were used as controls for KSHV copy number (LANA) and loading (actin), respectively. Protein samples were collected 48-h post Dox incubation. c KSHV reactivation by VGN50 incubation. BCBL-1 and BC-1 cell lines were treated with VGN50 (16 μM concentration) and total RNA harvested at 24 h post treatment. KSHV PAN RNA expression was examined by qRT-PCR and relative expression over 18S rRNA is shown. Data are presented as mean ± SD (n = 3). d Purification of recombinant SWI/SNF components. SDS-PAGE analysis of five SWI/SNF components individually prepared from baculovirus-infected Sf9 cells. e A schematic illustration of ELISA assay to evaluate VGN50 and SWI/SNF interaction. f Analysis of VGN50 binding to SWI/SNF components by ELISA. Increasing concentrations of biotin-conjugated VGN50 or Mut-P were incubated in duplicate in an ELISA plate coated with each SWI/SNF component. Peptide binding measured as OD values at 450 nm are shown. Mean OD values were compared between the VGN50 and Mut-P in each concentration using unpaired t-test. **p < 0.01, *p < 0.05, NS no significance. Data are presented as mean ± SD with duplicated samples and repeated three times with different purified protein preps.

KSHV PAN RNA in BCBL-1 = assay: KSHV PAN RNA qRT-PCR (reactivation); assay type: cell-based; conditions: BCBL-1, 16 μM, 24 h
Protocol: as §1, §2

MYC expression in BCBL-1 = assay: MYC qRT-PCR; assay type: cell-based, human; conditions: BCBL-1, 24 μM, 24 h
Protocol: (§3) As a next step, we sought to identify the cellular pathways that are impacted by VGN50. For this, RNA-seq analysis was conducted on total RNA isolated from cells harvested after 24 h of incubation with VGN50. Mutant peptide was used as a comparison to identify differentially regulated genes by VGN50 (Fig. 4a). […] Furthermore, we confirmed the result by RT-qPCR that the expression of MYC itself was decreased in both BCBL-1 and BC-1 cells after treatment with VGN50, but not mutant peptide (Fig. 4c).
(§4) Fig. 4 VGN50 target identification with RNA-sequencing. a Total RNA-sequencing. BCBL-1 cells were treated with either VGN50 or mutant peptide for 24 h (24 μM, n = 3). Untreated cells were used as a negative control. RNA-sequencing datasets from VGN50-peptide-treated samples were compared with that from mutant-peptide-treated samples, and differentially regulated genes were depicted as a volcano plot (left panel). b Gene Set Enrichment Analyses (GSEA). […] Peptide-treated samples were used for qRT-PCR analysis in duplicate and confirmed MYC down-regulation. (VGN50, 24 μM, 24 h post treatment) d Direct target identification with SLAM-seq. The experimental scheme is shown in the upper section of the panel. VGN50 or mutant peptide (24 μM final concentration) were added to BC-1 or BCBL-1 cells 30 mins prior to incubation with 4sU, and RNA was labeled for 1 h in the presence of each peptide. The C/T converted RNA-species were compared with mock-treated samples and depicted as scatter plots. Each treatment was performed in duplicate and nascent transcripts with p-values <0.05 are indicated as red dots. e Integrative Genomics Viewer (IGV). Both non-T/C converted and converted sequence reads were visualized with the IGV, and a snapshot of the MYC 3′-UTR region is presented. […] The strategy of gene selection for CSAN is described on the left-hand side of the panel. […] The number of common transcriptional regulators are shown in the Venn diagram and selected transcription and co-regulatory protein names are also included. The complete list of gene names is presented in Supplementary Fig. 3.

MYC expression in BC-1 = assay: MYC qRT-PCR; assay type: cell-based, human; conditions: BC-1, 24 μM, 24 h
Protocol: as §3, §4

In the case of CC(C)C[C@H](NC(=O)CCNC(=O)[C@H](CCCNC(=N)N)NC(=O)[C@H](CCCNC(=N)N)NC(=O)[C@H](CCCNC(=N)N)NC(=O)[C@H](CCCN)NC(=O)[C@H](CCCNC(=N)N)NC(=O)[C@H](CCCNC(=N)N)NC(=O)[C@H](CCCCN)NC(=O)[C@H](CCCCN)NC(=O)[C@H](N)CCCNC(=N)N)C(=O)N[C@@H](CO)C(=O)N[C@@H](CO)C(=O)N[C@@H](C)C(=O)N[C@@H](C)C(=O)N[C@@H](C)C(=O)NCC(=O)N[C@@H](CC(C)C)C(=O)N[C@@H](Cc1ccc(O)cc1)C(=O)N[C@@H](CCC(N)=O)C(=O)N[C@@H](CC(C)C)C(=O)N[C@@H](CC(=O)O)C(=O)N[C@H](C(=O)O)[C@@H](C)O [Mt-P] (H-[dR]KKRR[Orn]RRR[βAla]LSSAAAGLYQLDT-OH; N-terminus and C-terminus assumed), the “KSHV PAN RNA relative expression over 18S rRNA” value (from here on “KSHV PAN RNA relative expression”) (KSHV PAN RNA in BC-1; replicate 1) is reported as 1.419e-5, the “KSHV PAN RNA relative expression” value (KSHV PAN RNA in BC-1; replicate 2) is reported as 1.503e-5 and the “KSHV PAN RNA relative expression” value (KSHV PAN RNA in BC-1; replicate 3) is reported as 1.204e-5. The “KSHV PAN RNA relative expression” value (KSHV PAN RNA in BCBL-1; replicate 1) was 0.0001238, the “KSHV PAN RNA relative expression” value (KSHV PAN RNA in BCBL-1; replicate 2) was 0.0001335 and the “KSHV PAN RNA relative expression” value (KSHV PAN RNA in BCBL-1; replicate 3) was 0.0001325. The “C-myc 2^-(DCT)” value (MYC expression in BCBL-1; replicate 1) was 9.038e-5, the “C-myc 2^-(DCT)” value (MYC expression in BCBL-1; replicate 2) was 8.988e-5 and the “C-myc 2^-(DCT)” value (MYC expression in BC-1; replicate 1) was 9.403e-5. For the same compound, the “C-myc 2^-(DCT)” value (MYC expression in BC-1; replicate 2) was 9.337e-5.

Reference: publication PMC8639922, “KSHV transactivator-derived small peptide traps coactivators to attenuate MYC and inhibits leukemia and lymphoma cell growth” (Communications Biology, 2021)
